Experimental data: patent US11173160B2 (UNIVERSITY OF PITTSBURGH—OF THE COMMONWEALTH SYSTEM OF …, priority 2019, dated 2021)
“Also recorded” adds a separate entry of the source.

Key:
ERK5 = ERK5 (Homo sapiens, UniProt Q13164); assay: in vitro kinase assay of purified recombinant ERK5 and MYC; type: biochemical; conditions: ERK5 and ATP, 30 minutes at 30° C.
Experimental: Purified active recombinant ERK5 protein was purchased from ThermoFisher Scientific (Cat #A32872) and purified recombinant MYC was purchased from Abcam (Cat #ab84132). Purified ERK5 and MYC were resuspended in 40 μl of 1× kinase buffer supplemented with […] ATP, 0.25 μg substrate, and 1.0 μg purified recombinant and active kinase. Samples were incubated in the presence or absence of an ERK5 inhibitor for 30 minutes at 30° C. The reaction was terminated with 20 μl 3×SDS sample buffer. Samples were then boiled at 100° C. for 5 minutes and then evaluated by western blotting using a phospho MYC ser62 antibody (1:1000). 1× Kinase Buffer recipe: 25 mM Tris (pH 7.5), 5 mM O-glycerophosphate, 2 mM DTT, 0.1 mM Na3VO4, 10 mM MgCl2.

[1] = tested on: SF8628 intracranial xenografts; assay: SF8628 orthotopic xenograft model; type: in vivo, mice; conditions: for KI-67 staining (proliferation marker): 20 mg/kg, vs vehicle
Experimental: All animal procedures were carried out ethically according to animal user protocols approved by Institutional Animal Care Committee (IACUC). 4-6 week-old non-obese diabetic severe combined immune deficiency male or female mice (NOD-SCID-Prkdc^scid) were injected with 1×10^5 SU-DIPG-13p cells or 1×10^5 SF8628 DIPG cells. Cells were re-suspended in 2 μl of PBS and injected into the pons/midbrain using a stereotactic frame (Stoelting) and automated cell injector (Stoelting) with cells delivered over 4 minutes. Coordinates were as follows from the Lambda suture (x=0.8 mm, y=−0.8 mm, z=−5.0 mm). […] Mice were treated for two cycles (5 days on, with two days off per cycle). Mice were sacrificed at sign of neurological duress and brains were extracted and fixed in 4% PFA.
Also, the present disclosure used two established cell lines derived from transgenic mouse models of DIPG. Both lines are p53 null and express PDGFB, differing only in their H3.3 mutation status.
In a first DIPG mouse model, NOD-SCID gamma mice were injected with 2×10^5 SF8628 cells in the midbrain.
For each cycle, the compounds were administered 20 mg/kg/day for 5 days, followed with 2 days of rest period. Each mice received 2 cycles of treatment.

[2] = tested on: six adult patient-derived glioblastoma cell lines (e.g., BT228, BT286, BT145); assay: radiation therapy and TG02 in adult glioblastoma cell lines; type: cell-based, human; conditions: TG02 between 100 and 250 nM
Experimental: Cell viability was assessed on Day 5.

[3] = tested on: DIPG-13p and DIPG-IV cells; assay: cell viability with TG02 and/or RT; type: cell-based, human
[4] = tested on: normal astrocytes or neural stem cells; assay: viability of normal cells treated with TG02; type: cell-based, human; conditions: nM ranges
Excerpt: Brain gliomas express high levels of ERK5 (FIG. 29).

Lck = Lck (Homo sapiens, UniProt P06239); conditions: Source Millipore; 10-point titration in duplicates, done once; cited from earlier work
Sequence of Lck (P06239 whole entry): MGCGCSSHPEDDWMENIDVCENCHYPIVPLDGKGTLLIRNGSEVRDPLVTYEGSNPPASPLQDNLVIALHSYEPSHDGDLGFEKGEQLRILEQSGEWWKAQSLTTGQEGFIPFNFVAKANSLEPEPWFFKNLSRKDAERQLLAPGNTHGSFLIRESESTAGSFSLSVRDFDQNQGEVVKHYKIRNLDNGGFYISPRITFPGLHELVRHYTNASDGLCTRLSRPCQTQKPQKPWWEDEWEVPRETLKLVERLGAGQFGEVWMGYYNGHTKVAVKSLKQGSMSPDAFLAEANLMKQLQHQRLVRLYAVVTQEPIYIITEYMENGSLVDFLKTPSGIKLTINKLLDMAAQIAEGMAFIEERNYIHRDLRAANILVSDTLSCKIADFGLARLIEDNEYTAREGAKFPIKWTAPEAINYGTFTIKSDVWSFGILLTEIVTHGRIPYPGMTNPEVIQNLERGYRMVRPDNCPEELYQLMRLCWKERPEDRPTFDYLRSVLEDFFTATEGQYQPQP

Fyn = Fyn (Homo sapiens, UniProt P06241); conditions: Source Millipore; 10-point titration in duplicates, done once; cited from earlier work
JAK1 = JAK1 (Homo sapiens, UniProt P23458); conditions: Source Invitrogen; 10-point titration in duplicates, done once; cited from earlier work
Sequence of JAK1 (P23458 whole entry): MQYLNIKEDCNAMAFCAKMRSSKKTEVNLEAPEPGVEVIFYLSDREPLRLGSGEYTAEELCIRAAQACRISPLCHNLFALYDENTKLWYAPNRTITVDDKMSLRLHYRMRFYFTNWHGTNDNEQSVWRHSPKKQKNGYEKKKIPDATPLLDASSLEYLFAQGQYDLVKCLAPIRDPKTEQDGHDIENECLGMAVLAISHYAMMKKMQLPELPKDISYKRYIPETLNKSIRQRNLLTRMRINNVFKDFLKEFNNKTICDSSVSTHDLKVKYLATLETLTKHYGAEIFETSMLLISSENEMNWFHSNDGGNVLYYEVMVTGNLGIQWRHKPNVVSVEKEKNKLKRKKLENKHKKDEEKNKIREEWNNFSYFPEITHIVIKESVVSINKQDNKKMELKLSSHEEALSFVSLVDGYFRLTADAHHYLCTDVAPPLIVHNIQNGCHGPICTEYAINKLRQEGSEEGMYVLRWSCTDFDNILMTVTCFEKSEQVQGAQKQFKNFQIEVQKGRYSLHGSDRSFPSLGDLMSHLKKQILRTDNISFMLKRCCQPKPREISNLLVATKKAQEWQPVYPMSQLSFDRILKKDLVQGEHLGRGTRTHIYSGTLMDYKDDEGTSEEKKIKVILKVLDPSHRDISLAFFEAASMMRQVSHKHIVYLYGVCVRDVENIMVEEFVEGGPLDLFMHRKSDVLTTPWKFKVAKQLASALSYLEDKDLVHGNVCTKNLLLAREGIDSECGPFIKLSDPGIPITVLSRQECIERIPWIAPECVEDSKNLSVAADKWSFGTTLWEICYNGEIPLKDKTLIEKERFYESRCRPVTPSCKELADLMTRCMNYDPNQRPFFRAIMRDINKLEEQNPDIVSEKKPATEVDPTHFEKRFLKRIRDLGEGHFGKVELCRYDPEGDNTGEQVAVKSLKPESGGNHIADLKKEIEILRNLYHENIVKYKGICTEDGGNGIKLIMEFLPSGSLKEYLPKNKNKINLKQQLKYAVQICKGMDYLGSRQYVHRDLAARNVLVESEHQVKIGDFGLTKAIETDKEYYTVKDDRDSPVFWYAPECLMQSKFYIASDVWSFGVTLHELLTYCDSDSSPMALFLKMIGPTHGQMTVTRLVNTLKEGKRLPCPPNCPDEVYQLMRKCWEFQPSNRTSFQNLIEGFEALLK

Abl = Abl (Homo sapiens, UniProt P00519); conditions: cited from earlier work
ALK = ALK (Homo sapiens, UniProt Q9UM73); conditions: cited from earlier work
Aurora B = Aurora B (Homo sapiens, UniProt Q96GD4); conditions: cited from earlier work
CaMKVI = CaMKVI (Homo sapiens, UniProt Q16566); conditions: cited from earlier work
CDK6 = CDK6 (Homo sapiens, UniProt Q00534); conditions: cited from earlier work
[5] = cited from earlier work
c-Raf = c-Raf (Homo sapiens, UniProt P04049); conditions: cited from earlier work
Sequence of c-Raf (P04049 whole entry): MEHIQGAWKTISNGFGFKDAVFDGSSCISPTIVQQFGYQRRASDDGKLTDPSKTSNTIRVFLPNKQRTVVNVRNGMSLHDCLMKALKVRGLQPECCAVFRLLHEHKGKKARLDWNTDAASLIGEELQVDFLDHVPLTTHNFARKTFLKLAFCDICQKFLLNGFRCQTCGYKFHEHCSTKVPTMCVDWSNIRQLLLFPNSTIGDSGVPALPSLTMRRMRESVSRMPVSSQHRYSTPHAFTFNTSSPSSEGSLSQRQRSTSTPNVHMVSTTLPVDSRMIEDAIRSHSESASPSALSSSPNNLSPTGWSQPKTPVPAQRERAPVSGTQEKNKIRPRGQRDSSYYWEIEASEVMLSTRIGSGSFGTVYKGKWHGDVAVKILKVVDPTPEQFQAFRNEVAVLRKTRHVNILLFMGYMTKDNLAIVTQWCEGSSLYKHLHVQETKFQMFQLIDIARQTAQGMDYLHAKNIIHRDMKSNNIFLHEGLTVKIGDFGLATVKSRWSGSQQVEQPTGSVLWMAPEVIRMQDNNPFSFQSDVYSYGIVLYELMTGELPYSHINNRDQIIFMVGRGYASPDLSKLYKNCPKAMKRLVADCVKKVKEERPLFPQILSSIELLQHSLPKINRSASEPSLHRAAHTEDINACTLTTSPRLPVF

FAK = FAK (Homo sapiens, UniProt Q05397); conditions: cited from earlier work
IRAK4 = IRAK4 (Homo sapiens, UniProt Q9NWZ3); conditions: cited from earlier work
KDR = KDR (Homo sapiens, UniProt P35968); conditions: cited from earlier work
Kit = Kit (Homo sapiens, UniProt P10721); conditions: cited from earlier work
Sequence of Kit (P10721 26-976): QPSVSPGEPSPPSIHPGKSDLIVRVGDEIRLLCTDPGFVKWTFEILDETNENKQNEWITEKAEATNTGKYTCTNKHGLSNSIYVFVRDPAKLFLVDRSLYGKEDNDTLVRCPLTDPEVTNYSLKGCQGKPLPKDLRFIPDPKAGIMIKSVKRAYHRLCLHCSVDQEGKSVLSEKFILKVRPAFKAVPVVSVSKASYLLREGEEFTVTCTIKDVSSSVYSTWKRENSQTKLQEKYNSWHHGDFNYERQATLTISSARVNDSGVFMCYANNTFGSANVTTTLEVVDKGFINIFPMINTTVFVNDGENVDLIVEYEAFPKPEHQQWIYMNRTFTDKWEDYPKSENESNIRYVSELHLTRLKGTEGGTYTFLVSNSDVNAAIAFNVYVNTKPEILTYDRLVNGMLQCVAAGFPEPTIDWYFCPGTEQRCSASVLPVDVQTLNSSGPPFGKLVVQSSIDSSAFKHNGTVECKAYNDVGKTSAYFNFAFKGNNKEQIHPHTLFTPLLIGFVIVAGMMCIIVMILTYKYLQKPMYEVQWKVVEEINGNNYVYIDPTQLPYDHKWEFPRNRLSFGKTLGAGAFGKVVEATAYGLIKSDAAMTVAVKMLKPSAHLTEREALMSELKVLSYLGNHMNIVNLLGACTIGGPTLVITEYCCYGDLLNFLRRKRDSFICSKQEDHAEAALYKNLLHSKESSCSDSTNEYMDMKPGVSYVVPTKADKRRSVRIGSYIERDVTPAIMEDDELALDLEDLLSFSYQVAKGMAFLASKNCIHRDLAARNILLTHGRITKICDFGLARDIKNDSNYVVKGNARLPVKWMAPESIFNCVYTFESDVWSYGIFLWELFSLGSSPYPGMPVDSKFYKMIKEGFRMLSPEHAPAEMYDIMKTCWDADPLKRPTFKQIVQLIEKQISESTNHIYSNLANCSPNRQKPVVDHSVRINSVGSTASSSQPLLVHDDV

p38α = p38α (Homo sapiens, UniProt Q16539); conditions: cited from earlier work
Sequence of p38α (Q16539 whole entry): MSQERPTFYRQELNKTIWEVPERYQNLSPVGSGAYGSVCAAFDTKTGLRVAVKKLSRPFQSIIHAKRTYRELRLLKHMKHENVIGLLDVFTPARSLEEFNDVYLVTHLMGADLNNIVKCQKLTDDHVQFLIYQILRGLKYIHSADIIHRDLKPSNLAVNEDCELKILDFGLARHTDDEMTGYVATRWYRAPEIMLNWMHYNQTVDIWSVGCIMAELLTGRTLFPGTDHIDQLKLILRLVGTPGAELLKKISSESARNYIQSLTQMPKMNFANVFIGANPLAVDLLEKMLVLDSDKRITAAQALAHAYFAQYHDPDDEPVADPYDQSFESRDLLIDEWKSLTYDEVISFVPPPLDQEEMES

PAK2 = PAK2 (Homo sapiens, UniProt Q13177); conditions: cited from earlier work
PKCε = PKCε (Homo sapiens, UniProt Q02156); conditions: cited from earlier work
PLK3 = PLK3 (Homo sapiens, UniProt Q9H4B4); conditions: cited from earlier work
Src = Src (Homo sapiens, UniProt P12931); conditions: cited from earlier work
Sequence of Src (P12931 whole entry, species assumed): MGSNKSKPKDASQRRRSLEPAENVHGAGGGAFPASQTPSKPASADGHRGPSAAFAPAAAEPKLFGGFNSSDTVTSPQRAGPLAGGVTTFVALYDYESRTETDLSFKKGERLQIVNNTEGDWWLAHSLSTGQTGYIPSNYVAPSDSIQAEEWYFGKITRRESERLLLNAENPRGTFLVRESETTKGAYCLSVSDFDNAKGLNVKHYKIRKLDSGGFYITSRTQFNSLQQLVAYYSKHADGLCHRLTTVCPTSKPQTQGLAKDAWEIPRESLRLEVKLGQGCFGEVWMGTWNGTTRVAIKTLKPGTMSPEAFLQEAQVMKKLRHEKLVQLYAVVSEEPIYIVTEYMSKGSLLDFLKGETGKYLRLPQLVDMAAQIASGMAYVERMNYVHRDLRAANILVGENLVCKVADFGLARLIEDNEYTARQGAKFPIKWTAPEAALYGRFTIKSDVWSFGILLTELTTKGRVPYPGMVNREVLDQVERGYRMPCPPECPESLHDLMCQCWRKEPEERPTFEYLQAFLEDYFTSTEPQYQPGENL

CYP1A2 = CYP1A2 (Homo sapiens, UniProt P05177); conditions: cited from earlier work
[6] = cited from earlier work; remark: listed apart in the source
[7] = cited from earlier work; remark: listed apart in the source

Sequence of ERK5 (Q13164 whole entry): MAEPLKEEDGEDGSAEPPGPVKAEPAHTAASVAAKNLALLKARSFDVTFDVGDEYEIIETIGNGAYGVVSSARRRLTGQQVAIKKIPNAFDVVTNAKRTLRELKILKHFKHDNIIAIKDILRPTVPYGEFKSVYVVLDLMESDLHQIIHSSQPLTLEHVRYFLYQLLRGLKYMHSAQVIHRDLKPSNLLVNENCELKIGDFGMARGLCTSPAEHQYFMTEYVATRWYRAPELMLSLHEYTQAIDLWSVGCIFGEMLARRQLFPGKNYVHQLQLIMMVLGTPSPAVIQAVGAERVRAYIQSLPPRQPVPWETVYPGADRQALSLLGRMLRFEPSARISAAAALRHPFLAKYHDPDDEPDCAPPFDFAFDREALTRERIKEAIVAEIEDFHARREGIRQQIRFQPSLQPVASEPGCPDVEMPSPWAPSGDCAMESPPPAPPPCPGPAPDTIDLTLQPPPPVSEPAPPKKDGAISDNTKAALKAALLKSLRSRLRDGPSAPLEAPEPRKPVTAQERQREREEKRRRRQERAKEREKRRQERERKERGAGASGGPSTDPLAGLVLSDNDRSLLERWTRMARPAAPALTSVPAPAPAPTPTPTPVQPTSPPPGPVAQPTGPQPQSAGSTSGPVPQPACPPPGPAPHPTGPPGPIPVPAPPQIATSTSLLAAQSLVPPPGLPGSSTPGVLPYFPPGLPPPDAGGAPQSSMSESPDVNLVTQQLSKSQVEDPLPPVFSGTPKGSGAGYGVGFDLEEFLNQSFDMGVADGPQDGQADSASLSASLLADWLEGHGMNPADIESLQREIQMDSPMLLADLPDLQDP

For CN1C/C=C/CCOc2cccc(c2)-c2ccnc(n2)Nc2cccc(c2)C1 [TG02, (16E)-14-methyl-20-oxa-5,7,14,27-tetraazatetracyclo[19.3.1.12,6.18,12]heptacosa-1(25),2(27),3,5,8(26),9,11,16,21,23-decaene], the “phosphorylation of MYC(S62) by ERK5” value (ERK5) was “inhibited”, the “KI-67 staining (proliferation marker)” value ([1]; 2 cycles) was “reduced KI-67 staining” and the “KI-67 staining (proliferation marker)” value ([1]; 2 cycles, listed as TG02 obtained from Adastra Pharmaceuticals) was “significantly reduced KI67 expression; also recorded: significantly reduced K167 expression”. For the same compound, the survival vs vehicle ([1]; 20 mg/kg/day for 5 days, 2 days rest, 2 cycles) was “statistically significant increased median survival”, the median survival ([1]; TG02 20 mg/kg, 2 cycles of 5 days on 2 days off, vehicle 33 days) was 59 days and the “extension of median survival time” value ([1]; mice intracranially engrafted with DIPG cells) was “nearly two-fold”. For the same compound, the “effect of combining radiation therapy (RT) and TG02” value [2] was “mostly a synergistic effect”, the “cell viability, RT and TG02” value ([3]; 50 nM TG02 and 10 Gy of RT (2-Gy fractions over 5 days), Day 5, compared to RT or TG02 only) was “statistically significant reduction in cell viability” and the “cell viability, TG02 alone” value ([3]; 50 nM of TG02, Day 5, vs DMSO control) was “significantly reduced cell viability”. The “toxicity to normal cells” value [4] was “not toxic”, the IC50 (Lck) was 11 nM and the IC50 (Fyn) was 15 nM. For the same compound, the IC50 (JAK1) was 59 nM, the “inhibition at 100 nm” value (Abl) was “less than 50%” and the “inhibition at 100 nm” value (ALK) was “less than 50%”. For the same compound, the “inhibition at 100 nm” value (Aurora B) was “less than 50%”, the “inhibition at 100 nm” value (CaMKVI) was “less than 50%” and the “inhibition at 100 nm” value (CDK6) was “less than 50%”. The “inhibition at 100 nm” value [5] was “less than 50%”, the “inhibition at 100 nm” value (c-Raf) was “less than 50%” and the “inhibition at 100 nm” value (FAK) was “less than 50%”. For the same compound, the “inhibition at 100 nm” value (IRAK4) was “less than 50%”, the “inhibition at 100 nm” value (KDR) was “less than 50%” and the “inhibition at 100 nm” value (Kit) was “less than 50%”. For the same compound, the “inhibition at 100 nm” value (p38α) was “less than 50%”, the “inhibition at 100 nm” value (PAK2) was “less than 50%” and the “inhibition at 100 nm” value (PKCε) was “less than 50%”. The “inhibition at 100 nm” value (PLK3) was “less than 50%”, the “inhibition at 100 nm” value (Src) was “less than 50%” and the “substrate of CYP1A2” value (CYP1A2) was “substrate”. For the same compound, the “most common toxicities (≥20%)” value ([6]; adults with acute leukemia) was “nausea, vomiting, fatigue, abdominal pain, diarrhea, constipation, and hypophosphatemia”, the serious adverse events ([6]; adults with hematologic malignancies) was “nausea and vomiting (grades 2 and 3), fatigue (grade 3), altered mental status (grade 2), rash (grade 3), thrombocytopenia (grade 4), and neutropenic fever with sepsis (grade 3)” and the “maximum tolerated dose (MTD)” value ([6]; intermittent TG02 with fixed doses of carfilzomib, twice a week for 21 of 28 days) was 250 mg per dose. The “dose-limiting toxicities (DLTs), DD regimen” value ([7]; human, in vivo) was “grade 3 diarrhea (n=1) at 200 mg of TG02, and grade 4 neutropenia and grade 3 increase in ALT (n=1) at 250 mg of TG02”, the “dose-limiting toxicities (DLTs), MN regimen” value ([7]; human, in vivo) was “grade 4 lymphopenia (n=2) and increase in ALT (n=1) at 250 mg of TG02” and the “MTD, metronomic (MN) temozolomide regimen” value ([7]; temozolomide 50 mg/m^2) was 200 mg. For the same compound, the “MTD, dose-dense (DD) temozolomide regimen” value ([7]; temozolomide 125 m/m^2 per day 7 days on/7 days off) was 250 mg.
